Laboratory results published in ChEMBL document CHEMBL1201862, “PubChem BioAssay data set” (2004).
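These data come from cells grown in 96-well plates and exposed to compound for 48 hours at five concentrations. Abbreviation: GI50, concentration required for 50% inhibition of growth.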 Active and inactive are the calls of the source. Rule as the data show it: active = GI50 up to about 1.1 µM and inactive = higher.

Assays:
Assay in all cases: NCI tumour cell line growth inhibition, 48 h
[1] = test system: HL-60
[2] = test system: SF-539
[3] = test system: UO-31
[4] = test system: SF-295
[5] = test system: MDA-MB-435
[6] = test system: MCF7
[7] = test system: LOX IMVI
[8] = test system: UACC-62
[9] = test system: SF-268
[10] = test system: CAKI-1
[11] = test system: A549
[12] = test system: PC-3
[13] = test system: Hs-578T
[14] = test system: IGROV-1
[15] = test system: EKVX
[16] = test system: HT-29
[17] = test system: HCT-15
[18] = test system: HCT-116
[19] = test system: RXF 393
[20] = test system: SK-MEL-28
[21] = test system: SK-MEL-2
[22] = test system: SNB-19
[23] = test system: NCI-H226
[24] = test system: OVCAR-5
[25] = test system: 786-0
[26] = test system: UACC-257
[27] = test system: DU-145
[28] = test system: BT-549
[29] = test system: NCI/ADR-RES
[30] = test system: ACHN
[31] = test system: SR
[32] = test system: OVCAR-8
[33] = test system: NCI-H23
[34] = test system: MOLT-4
[35] = test system: HCC 2998
[36] = test system: Malme-3M
[37] = test system: NCI-H522
[38] = test system: NCI-H460
[39] = test system: HOP-62
[40] = test system: COLO 205
[41] = test system: SN12C
[42] = test system: U-251
[43] = test system: T47D
[44] = test system: M14
[45] = test system: CCRF-CEM
[46] = test system: HOP-92
[47] = test system: OVCAR-3
[48] = test system: TK-10
[49] = test system: MDA-MB-231
[50] = test system: MDA-N
[51] = test system: SW-620
[52] = test system: KM12
[53] = test system: SK-MEL-5
[54] = test system: OVCAR-4
[55] = test system: SK-OV-3
[56] = test system: SNB-75
[57] = test system: RPMI-8226
[58] = test system: K562
[59] = test system: A498

With `COc1ccc(-c2cc(=O)c3c(O)c(OC)c(OC)c(OC)c3o2)cc1` [GARDENIN B] the GI50 [1] was 0.863 µM (active), the GI50 [2] was > 61.7 µM (inactive) and the GI50 [3] was > 100 µM (inactive). For the same molecule, the GI50 [4] was 20.7 µM (inactive), the GI50 [5] was 0.431 µM (active) and the GI50 [6] was 4.86 µM (inactive). The GI50 [7] was 17.6 µM (inactive), the GI50 [8] was 45.3 µM (inactive) and the GI50 [9] was > 68.4 µM (inactive). The GI50 [10] was > 100 µM (inactive), the GI50 [11] was 10.1 µM (inactive) and the GI50 [12] was 30 µM (inactive). The GI50 [13] was 26.2 µM (inactive), the GI50 [14] was 2.33 µM (inactive) and the GI50 [15] was > 100 µM (inactive). The GI50 [16] was 4.17 µM (inactive), the GI50 [17] was 2.37 µM and the GI50 [18] was 13.4 µM (inactive). For the same molecule, the GI50 [19] was 10.6 µM (inactive), the GI50 [20] was > 100 µM (inactive) and the GI50 [21] was 12.8 µM (inactive). For the same molecule, the GI50 [22] was 25.4 µM (inactive), the GI50 [23] was > 100 µM (inactive) and the GI50 [24] was 98.6 µM (inactive). For the same molecule, the GI50 [25] was 21.5 µM (inactive), the GI50 [26] was > 100 µM (inactive) and the GI50 [27] was > 100 µM (inactive). The GI50 [28] was 16.2 µM (inactive), the GI50 [29] was > 100 µM (inactive) and the GI50 [30] was > 100 µM (inactive). For the same molecule, the GI50 [31] was 0.39 µM (active), the GI50 [32] was > 100 µM (inactive) and the GI50 [33] was > 36.3 µM (inactive). For the same molecule, the GI50 [34] was > 100 µM (inactive), the GI50 [35] was 1.71 µM (inactive) and the GI50 [36] was > 28.6 µM (inactive). The GI50 [37] was 6.58 µM (inactive), the GI50 [38] was 24.9 µM (inactive) and the GI50 [39] was 24.5 µM (inactive). The GI50 [40] was 7.83 µM (inactive), the GI50 [41] was > 100 µM (inactive) and the GI50 [42] was 15.5 µM (inactive). The GI50 [43] was 26.9 µM (inactive), the GI50 [44] was 16.5 µM (inactive) and the GI50 [45] was > 100 µM (inactive). The GI50 [46] was 27.4 µM (inactive), the GI50 [47] was 6.47 µM (inactive) and the GI50 [48] was 26.2 µM (inactive). The GI50 [49] was 12.6 µM (inactive), the GI50 [50] was 0.433 µM (active) and the GI50 [51] was 2.13 µM (inactive). For the same molecule, the GI50 [52] was 0.92 µM (active), the GI50 [53] was 5.52 µM (inactive) and the GI50 [54] was > 100 µM (inactive). For the same molecule, the GI50 [55] was 8.38 µM (inactive), the GI50 [56] was 10.2 µM (inactive) and the GI50 [57] was > 28.1 µM (inactive). The GI50 [58] was 0.498 µM (active).

For `Nc1n[nH]c2c1Cc1c(n(Cc3ccc(Cl)cc3)c3ccccc13)C(=O)N2`, the GI50 [1] was 3.03 µM (inactive), the GI50 [2] was 15.4 µM (inactive) and the GI50 [3] was 4.82 µM (inactive). The GI50 [4] was 17.3 µM (inactive), the GI50 [5] was 3.71 µM (inactive) and the GI50 [6] was 10.3 µM (inactive). The GI50 [7] was 9.79 µM (inactive), the GI50 [8] was 20.3 µM (inactive) and the GI50 [9] was 17.1 µM (inactive). For the same molecule, the GI50 [10] was 11.4 µM (inactive), the GI50 [11] was 17.8 µM (inactive) and the GI50 [12] was 11.2 µM (inactive). The GI50 [13] was 13.3 µM (inactive), the GI50 [14] was 12.5 µM (inactive) and the GI50 [15] was 18.7 µM (inactive). The GI50 [16] was 16.1 µM (inactive), the GI50 [17] was 4.12 µM and the GI50 [18] was 8.15 µM (inactive). For the same molecule, the GI50 [19] was 5.69 µM (inactive), the GI50 [20] was 38.1 µM (inactive) and the GI50 [21] was 15.9 µM (inactive). For the same molecule, the GI50 [23] was 11.1 µM (inactive), the GI50 [24] was 14.2 µM (inactive) and the GI50 [26] was 18 µM (inactive). The GI50 [27] was 12 µM (inactive), the GI50 [28] was 16.5 µM (inactive) and the GI50 [29] was 19.9 µM (inactive). For the same molecule, the GI50 [31] was 6.11 µM (inactive), the GI50 [32] was 16.5 µM (inactive) and the GI50 [33] was 10.6 µM (inactive). The GI50 [34] was 5.66 µM (inactive), the GI50 [35] was 10.4 µM (inactive) and the GI50 [36] was 14.7 µM (inactive). The GI50 [38] was 14 µM (inactive), the GI50 [39] was 15 µM (inactive) and the GI50 [40] was 11.5 µM (inactive). For the same molecule, the GI50 [41] was 14.5 µM (inactive), the GI50 [42] was > 10 µM (inactive) and the GI50 [43] was 12.3 µM (inactive). For the same molecule, the GI50 [44] was 13.2 µM (inactive), the GI50 [45] was 8.38 µM (inactive) and the GI50 [46] was 12.9 µM (inactive). For the same molecule, the GI50 [47] was 14.1 µM (inactive), the GI50 [48] was 15 µM (inactive) and the GI50 [49] was 14.4 µM (inactive). The GI50 [50] was 2.78 µM (inactive), the GI50 [51] was 8.47 µM (inactive) and the GI50 [53] was 3.69 µM (inactive). For the same molecule, the GI50 [59] was 13.7 µM (inactive), the GI50 [54] was 13.8 µM (inactive) and the GI50 [55] was 18.1 µM (inactive). For the same molecule, the GI50 [56] was 16.2 µM (inactive) and the GI50 [58] was 2.65 µM (inactive).

With `O=C(O)C#Cc1ccc([N+](=O)[O-])cc1` the GI50 [1] was > 100 µM (inactive), the GI50 [2] was > 100 µM (inactive) and the GI50 [3] was > 100 µM (inactive). The GI50 [4] was > 100 µM (inactive), the GI50 [5] was > 100 µM (inactive) and the GI50 [6] was > 100 µM (inactive). The GI50 [7] was > 100 µM (inactive), the GI50 [8] was > 100 µM (inactive) and the GI50 [9] was > 100 µM (inactive). The GI50 [10] was > 100 µM (inactive), the GI50 [11] was > 100 µM (inactive) and the GI50 [12] was > 100 µM (inactive). The GI50 [13] was > 100 µM (inactive), the GI50 [14] was > 100 µM (inactive) and the GI50 [15] was > 100 µM (inactive). The GI50 [16] was > 100 µM (inactive), the GI50 [17] was over 100 µM and the GI50 [18] was > 100 µM (inactive). The GI50 [19] was > 100 µM (inactive), the GI50 [20] was > 100 µM (inactive) and the GI50 [21] was > 100 µM (inactive). For the same molecule, the GI50 [22] was > 100 µM (inactive), the GI50 [23] was > 100 µM (inactive) and the GI50 [24] was > 100 µM (inactive). The GI50 [25] was > 100 µM (inactive), the GI50 [26] was > 100 µM (inactive) and the GI50 [27] was > 100 µM (inactive). The GI50 [28] was > 100 µM (inactive), the GI50 [29] was > 100 µM (inactive) and the GI50 [30] was > 100 µM (inactive). For the same molecule, the GI50 [31] was > 100 µM (inactive), the GI50 [32] was > 100 µM (inactive) and the GI50 [33] was > 100 µM (inactive). For the same molecule, the GI50 [34] was > 100 µM (inactive), the GI50 [35] was > 100 µM (inactive) and the GI50 [36] was > 100 µM (inactive). For the same molecule, the GI50 [38] was > 100 µM (inactive), the GI50 [39] was > 100 µM (inactive) and the GI50 [40] was > 100 µM (inactive). For the same molecule, the GI50 [41] was > 100 µM (inactive), the GI50 [42] was > 100 µM (inactive) and the GI50 [43] was > 100 µM (inactive). For the same molecule, the GI50 [44] was > 100 µM (inactive), the GI50 [45] was > 100 µM (inactive) and the GI50 [46] was > 100 µM (inactive). For the same molecule, the GI50 [47] was > 100 µM (inactive), the GI50 [48] was > 100 µM (inactive) and the GI50 [49] was > 100 µM (inactive). The GI50 [50] was > 100 µM (inactive), the GI50 [51] was > 100 µM (inactive) and the GI50 [52] was > 100 µM (inactive). The GI50 [53] was > 100 µM (inactive), the GI50 [59] was > 100 µM (inactive) and the GI50 [54] was > 100 µM (inactive). The GI50 [55] was > 100 µM (inactive), the GI50 [57] was > 100 µM (inactive) and the GI50 [58] was > 100 µM (inactive).
